Measurements reported in patent US20050070529A1, “Use of type 4 phosphodiesterase inhibitors in myocardial diseases” (Merk Pantent GmbH, priority 2001, published 2005).

Tests used:
TNF-α = TNF-α production in PBMC (ELISA); format: cell-based; details: Homo sapiens, activator LPS, 48 h, read-out: TNF-α macrophage IC50
Description: (§1) Peripheral blood mononuclear cells (PBMC) were isolated from the blood of healthy donors by the Lymphoprep gradient method. 200000 PBMC/well were cultured in RPMI1640 culture medium containing 5% heat inactivated human serum ([…]). at 37° C. and 10% CO2 in 96 well flat bottom microtiter plates. Cultures were set up as triplicates including a control group. Solutions of PDE4 inhibitors were prepared in DMSO at 10^−2 M and diluted in culture medium. Control cultures were treated with concentrations of DMSO equivalent to the inhibitor concentrations.
(§2) The culture supernatants of three independent experiments were pooled and cytokine activity in the supernatant was measured with commercially available ELISA test kits.
(§3) The data were calculated as percent inhibition/stimulation of the control without the compound and the IC50 value or EC50 value in case of stimulation was determined thereof.

[1] = test system: T cells within the PBMC preparation; assay: Effect of PDE4 inhibitors on T-cell proliferation (3H-thymidine incorporation, anti-CD3 stimulated PBMC); format: cell-based; details: Homo sapiens, 120 h, monoclonal antibody to CD3, 5 days, read-out: T-cell prol. IC50
Description: Peripheral blood mononuclear cells (PBMC) were isolated from the blood of healthy donors by the Lymphoprep gradient method. 200000 PBMC/well were cultured in RPMI1640 culture medium containing 5% heat inactivated human serum (AB pool) for 5 days at 37° C. and 10% CO2 in 96 well flat bottom microtiter plates. The T cells within the PBMC preparation were selectively stimulated with an monoclonal antibody to CD3. Cultures were set up as triplicates including a control group receiving no treatment. PDE4 inhibitors were dissolved in DMSO at 10^−2 M and diluted in culture medium. Control cultures were treated with DMSO equivalent to the inhibitor concentration. 18 hrs before the end of the assay, ^3H-thymidine was added to the cultures. The incorporation of radioactivity into the cells was then measured in a beta-counter.
The data of at least three independent experiments were calculated as percent inhibition of the control (mean ±SEM) without inhibitor.

IL-12 = IL-12 production in PBMC (ELISA); format: cell-based; details: Homo sapiens, activator SAC + IFNγ, 48 h, read-out: IL12 macrophage IC50
Description: as §1, §2, §3

IL-10 = IL-10 production in PBMC (ELISA); format: cell-based, human; details: activator LPS, 48 h, stimulation; for EC50: Homo sapiens, read-out: IL10 macrophage EC50
Description: as §1, §2, §3

IFN-γ = IFN-γ production in PBMC (ELISA); format: cell-based; details: Homo sapiens, activator mab anti-CD3, 48 h, read-out: IFN-γ T-cell IC50
Description: as §1, §2, §3

IL-2 = IL-2 production in PBMC (ELISA); format: cell-based; details: Homo sapiens, activator mab anti-CD3, 24 h, read-out: IL2 T-cell IC50
Description: as §1, §2, §3

SMILES	IC50 (TNF-α) [nM]	IC50 (IL-12) [nM]	EC50 (IL-10) [nM]	IC50 (IFN-γ) [nM]	IC50 (IL-2) [nM]	IL10 macrophage EC50 (IL-10)	IC50 [1] [nM]
CCOC(=O)Nc1ccc(CN2N=C(c3ccc(OC)c(OCC)c3)CCC2=O)cc1 [EMD 94360]	30	6	1	50	300	–	20
CCOc1cc(C2=NN(Cc3ccc(NC(=O)c4cccnc4)cc3)C(=O)SC2)ccc1OC [EMD 95832]	9	0.5	20	10	200	–	50
CCOC(=O)Nc1ccc(C(=O)N2CCCC(c3ccc(OC)c(OCC)c3)=N2)cc1 [EMD 125059]	30	–	8	8	60	–	40
CCOc1cc(C2=NN(C(=O)c3ccc(NC(=O)c4ccc(OC)cc4)cc3)CCC2)ccc1OC [EMD 219901]	2	–	1	5	3	–	7

The remaining compounds from weak to strong by IC50 (TNF-α), led by results:

IC50 (TNF-α) [nM]	IC50 (IL-12) [nM]	EC50 (IL-10) [nM]	IC50 (IFN-γ) [nM]	IC50 (IL-2) [nM]	IL10 macrophage EC50 (IL-10)	SMILES	IC50 [1] [nM]
600	> 100	50	1000	700	–	COc1ccc(C2CNC(=O)C2)cc1OC1CCCC1 (stereo not drawn) [Rolipram, reference compound]	300
3	–	–	7	2	no effect	CCOc1cc(C2=NN(C(=O)c3ccc(NC(=O)c4cccnc4)cc3)CCC2)ccc1OC [EMD 125025]	6
